Where “and” joins values, the source holds several entries; their conditions need not be identical. Equal entries are not always repeated. Where two headings read alike, the source gives them in different places.
Experiments:
[1] = tested on: HIV transcripts (PolyA, TatRev); assay: Dose-response curves of LPAs: polyadenylated and multiply spliced HIV transcripts 24 hours after activation; assay type: cell-based; conditions: for IC50: 24 h, PBMCs from 1 participant per drug; for MS Tat-Rev (dose-response) / PolyA (dose-response): 24 hours, 1 participant per drug
Experimental: The IC50 was determined based on the reduction in completed (PolyA) as well as multiply spliced (TatRev) HIV transcripts relative to activated DMSO (Table 1).
Figure 2 Dose-response curves of LPAs. Dose-response curves for each drug were generated in PBMCs from 1 ART-suppressed study participant per drug. PBMCs were aliquoted into wells at 6 × 10^6 cells/well, activated, and cultured with antiretrovirals in the presence of DMSO alone (no drug) or varying concentrations of individual drugs in DMSO. After 24 hours, the levels of polyadenylated and multiply spliced HIV transcripts were quantified by RT-ddPCR, normalized to 1 μg of total cellular RNA, and expressed as a percentage of the activated DMSO control (% of activated DMSO).

PBMCs [2] = assay: Cell viability by trypan blue staining after 24 hours; assay type: cell-based, human; set-up: key to Viability (dose-response): % of activated DMSO control viability; conditions: for Viability (dose-response): 1 participant per drug, in % (unit assumed); for Cell viability (in words): initial screening concentrations, Figure 1A
Experimental: Figure 1 Screening of candidate LPAs by measuring the change in multiply spliced HIV transcripts after activation. Each drug was tested in PBMCs from 2 ART-suppressed study participants (denoted in the legend by varying symbol shapes). PBMCs were aliquoted into wells at 6 × 10^6 cells/well. After activation, the cells were cultured with antiretrovirals in the presence of individual drugs in DMSO or DMSO alone as control. All conditions were tested in the presence of CD3/28 T cell–activating beads, except for the unactivated DMSO condition. (A) After 24 hours, the viability was measured by trypan blue staining and then normalized to the levels of the activated DMSO (% of activated DMSO). Bars indicate medians. (B) Total cellular RNA was extracted, and the levels of multiply spliced HIV transcripts (TatRev) were measured by RT-ddPCR, normalized to 1 μg of total cellular RNA, and expressed as a percentage of the activated DMSO control (% of activated DMSO). RT-dd, reverse transcription digital droplet; vRNA, viral RNA; HAT, histone acetyltransferase.
(§1) For quantification of cell-associated HIV transcripts, PBMCs were harvested either after 24 hours or after 6 days. The cell viabilities were measured by trypan blue staining; then the cells were pelleted by centrifuging at 300g for 6 minutes and stored at –80°C. For quantification of virion-associated HIV RNA, cell culture supernatant was collected from 6 × 10^6 PBMCs that were treated and activated for 6 days as described above. Residual cells and cellular debris were subsequently removed from the supernatant by differential centrifugation (300g for 6 minutes, then 20,000g for 10 minutes), and the supernatant was stored at –80°C.

PBMCs [3] = assay type: cell-based, human; conditions: 6 days after αCD3/28 activation, each row one participant
Experimental: Next, we evaluated the ability of the candidate LPAs to sustain the inhibitory effects during a prolonged ex vivo culture. To this end, PBMCs were cultured in the presence of individual drugs in DMSO or in DMSO alone as control, activated (anti-CD3/CD28), and harvested after 6 days. […] However, we decided to test the drug on day 6 because extra cells were available from some study participants.
as §1
A) After six days, the viability was measured by trypan blue staining and then normalized to the levels of the activated DMSO (% of activated DMSO). Bars indicate medians and different colors indicate individual study participants. B-F) Each drug was tested in PBMCs from at least six ART-suppressed study participants (except for KRIBB11, n=5) and the PBMCs were aliquoted into wells at 6x10^6 cells/well. After activation, the cells were cultured with antiretrovirals in the presence of individual drugs in DMSO or DMSO alone as control. After six days, total RNA was extracted and the progression through different stages of HIV transcription was (1 picture or pasted object on this page, not shown here)

[4] = Human immunodeficiency virus 1, PBMC, reduction in PolyA HIV transcripts relative to activated DMSO, read-out: Completed (PolyA) IC50
[5] = Human immunodeficiency virus 1, PBMC, reduction in TatRev HIV transcripts relative to activated DMSO, read-out: Multiply spliced (TatRev) IC50

## O=c1c(O)c(-c2ccc(O)c(O)c2)oc2cc(O)cc(O)c12 [quercetin]
[1]; [4]
  IC50: 1410 nM
[1]; [5]
  IC50: 1130 nM
[1]; dose 5 µM
  MS Tat-Rev (dose-response): 15.52 % of activated DMSO
  PolyA (dose-response): 17.57 % of activated DMSO
[1]; dose 10 µM
  MS Tat-Rev (dose-response): 14.99 % of activated DMSO
  PolyA (dose-response): 19.46 % of activated DMSO
PBMCs [2]; dose 5 µM
  Viability (dose-response): 87.619
PBMCs [2]; dose 10 µM
  Viability (dose-response): 77.686
PBMCs [2]; study participant 150a
  Viability (Fig 1A): 100.02 % of activated DMSO
PBMCs [2]; study participant 152
  Viability (Fig 1A): 90.16 % of activated DMSO
PBMCs [3]; 5μM
  Cell viability (DMSO αCD3/28 = 100): 74.1 and 98.05 and 112.6 and 106 and 105.8

## COc1ccc(-c2cc(=O)c3c(O)cc(O)c(-c4cc(-c5cc(=O)c6c(O)cc(O)cc6o5)ccc4OC)c3o2)cc1 [isoginkgetin]
PBMCs [2]
  Cell viability (in words): impact on cell viability
PBMCs [2]; study participant 150a
  Viability (Fig 1A): 88.97 % of activated DMSO
PBMCs [2]; study participant 152
  Viability (Fig 1A): 84.74 % of activated DMSO
PBMCs [3]; 25μM
  Cell viability (DMSO αCD3/28 = 100): 120.3 and 106.36 and 93.99 and 112.22 and 91.65 and 74.9 and 87.5 and 124.6

## CCc1cnn2c(NCc3ccc[n+]([O-])c3)cc(N3CCCC[C@H]3CCO)nc12 [dinaciclib]
[1]; dose 1 nM
  PolyA (dose-response): 39.51 % of activated DMSO
[1]; dose 4 nM
  PolyA (dose-response): 6.37 % of activated DMSO
[1]; dose 8 nM
  PolyA (dose-response): 1.62 % of activated DMSO
PBMCs [2]; dose 1 nM
  Viability (dose-response): 89.474
PBMCs [2]; dose 4 nM
  Viability (dose-response): 89.815
PBMCs [2]; dose 8 nM
  Viability (dose-response): 89.726
PBMCs [2]; study participant 150a
  Viability (Fig 1A): 96.36 % of activated DMSO
PBMCs [2]; study participant 152
  Viability (Fig 1A): 99.43 % of activated DMSO

## CO[C@H]([C@@H](C)[C@H]1O[C@]1(C)C[C@H](C)/C=C/C=C(\C)[C@H]1O[C@@H](CC(=O)O)CC[C@@H]1C)[C@@H](C)O [herboxidiene]
PBMCs [2]; study participant 150a
  Viability (Fig 1A): 99.57 % of activated DMSO
PBMCs [2]; study participant 2147b
  Viability (Fig 1A): 98.97 % of activated DMSO
PBMCs [3]; 5nM
  Cell viability (DMSO αCD3/28 = 100): 119.6 and 123.7 and 95.53 and 100.64 and 118.06 and 114.9 and 85 and 106.6 and 119.5

## C=CCNC1=C2C[C@@H](C)C[C@H](OC)[C@H](O)[C@@H](C)/C=C(\C)[C@H](OC(N)=O)[C@@H](OC)/C=C\C=C(/C)C(=O)NC(=CC1=O)C2=O [tanespimycin]
PBMCs [2]; study participant 150b
  Viability (Fig 1A): 104.931 % of activated DMSO
PBMCs [2]; study participant 2147b
  Viability (Fig 1A): 92.78 % of activated DMSO
PBMCs [3]; 5μM
  Cell viability (DMSO αCD3/28 = 100): 119.92 and 93.07 and 93.65 and 100.43 and 91.95 and 100.9 and 116.6

## CNc1ccc([N+](=O)[O-])c(Nc2ccc3[nH]ncc3c2)n1 [KRIBB11]
PBMCs [2]; study participant 150a
  Viability (Fig 1A): 102.97 % of activated DMSO
PBMCs [2]; study participant 152
  Viability (Fig 1A): 101.83 % of activated DMSO

## CC(C)[C@]12O[C@H]1[C@@H]1O[C@]13[C@]1(O[C@H]1C[C@H]1C4=C(CC[C@@]13C)C(=O)OC4)[C@@H]2O [triptolide]
PBMCs [2]
  Cell viability (in words): impact on cell viability
PBMCs [2]; study participant 150b
  Viability (Fig 1A): 96.4057 % of activated DMSO
PBMCs [2]; study participant 2147b
  Viability (Fig 1A): 91.51 % of activated DMSO
PBMCs [3]; 25-50nM
  Cell viability (DMSO αCD3/28 = 100): 81.87 and 92.51 and 90.83 and 106.88 and 80.32 and 104.1

## CN1CC[C@H](c2c(O)cc(O)c3c(=O)cc(-c4ccccc4Cl)oc23)[C@H](O)C1 [alvocidib]
[1]; [4]
  IC50: 3.41 nM
[1]; [5]
  IC50: 4.23 nM
[1]; dose 4 nM
  MS Tat-Rev (dose-response): 60.15 % of activated DMSO
  PolyA (dose-response): 52.96 % of activated DMSO
[1]; dose 10 nM
  MS Tat-Rev (dose-response): 21.37 % of activated DMSO
  PolyA (dose-response): 17.13 % of activated DMSO
[1]; dose 40 nM
  MS Tat-Rev (dose-response): 5.52 % of activated DMSO
  PolyA (dose-response): 5.99 % of activated DMSO
[1]; dose 100 nM
  MS Tat-Rev (dose-response): 1.88 % of activated DMSO
  PolyA (dose-response): 3.2 % of activated DMSO
PBMCs [2]; dose 4 nM
  Viability (dose-response): 81
PBMCs [2]; dose 10 nM
  Viability (dose-response): 85
PBMCs [2]; dose 40 nM
  Viability (dose-response): 95.181
PBMCs [2]; dose 100 nM
  Viability (dose-response): 77
PBMCs [2]; study participant 150a
  Viability (Fig 1A): 98.54 % of activated DMSO

## pladienolide B
[1]; dose 0.1 nM
  MS Tat-Rev (dose-response): 34.26 % of activated DMSO
  PolyA (dose-response): 47.95 % of activated DMSO
[1]; dose 1 nM
  MS Tat-Rev (dose-response): 17.07 % of activated DMSO
  PolyA (dose-response): 43.55 % of activated DMSO
[1]; dose 10 nM
  MS Tat-Rev (dose-response): 0.76 % of activated DMSO
  PolyA (dose-response): 4 % of activated DMSO
[1]; reduction in PolyA HIV transcripts relative to activated DMSO, read-out: Completed (PolyA) IC50
  IC50: 0.18 nM
[1]; reduction in TatRev HIV transcripts relative to activated DMSO, read-out: Multiply spliced (TatRev) IC50
  IC50: 0.06 nM
PBMCs [2]; dose 0.1 nM
  Viability (dose-response): 74.768
PBMCs [2]; dose 1 nM
  Viability (dose-response): 75.444
PBMCs [2]; dose 10 nM
  Viability (dose-response): 68.259
PBMCs [2]
  Cell viability (in words): impact on cell viability
PBMCs [2]; study participant 150a
  Viability (Fig 1A): 75.5 % of activated DMSO
PBMCs [2]; study participant 152
  Viability (Fig 1A): 79.98 % of activated DMSO
PBMCs [3]; 10nM
  Cell viability (DMSO αCD3/28 = 100): 115.2 and 113.39 and 90.65 and 128.6 and 121.6 and 94.2 and 112.8

## N#CC[C@H](C1CCCC1)n1cc(-c2ncnc3[nH]ccc23)cn1 [ruxolitinib]
[1]; [4]
  IC50: 270 nM
[1]; [5]
  IC50: 260 nM
[1]; dose 0.4 µM
  MS Tat-Rev (dose-response): 41.24 % of activated DMSO
  PolyA (dose-response): 33.83 % of activated DMSO
[1]; dose 1 µM
  MS Tat-Rev (dose-response): 15.99 % of activated DMSO
  PolyA (dose-response): 29.83 % of activated DMSO
[1]; dose 4 µM
  MS Tat-Rev (dose-response): 8.19 % of activated DMSO
  PolyA (dose-response): 7.04 % of activated DMSO
[1]; dose 10 µM
  MS Tat-Rev (dose-response): 4.34 % of activated DMSO
  PolyA (dose-response): 4.66 % of activated DMSO
PBMCs [2]; dose 0.4 µM
  Viability (dose-response): 90.244
PBMCs [2]; dose 1 µM
  Viability (dose-response): 87.333
PBMCs [2]; dose 4 µM
  Viability (dose-response): 92.053
PBMCs [2]; dose 10 µM
  Viability (dose-response): 89.32
PBMCs [2]; study participant 150a
  Viability (Fig 1A): 95.89 % of activated DMSO
PBMCs [2]; study participant 152
  Viability (Fig 1A): 102.01 % of activated DMSO

## CC(=O)N[C@@H]1CCC[C@H](C(=O)Nc2cc(-c3cnn4c3CC(C)(C)C4)c(Cl)cn2)C1 [AZD4573]
[1]; [4]
  IC50: 0.28 nM
[1]; [5]
  IC50: 0.23 nM
[1]; dose 1 nM
  MS Tat-Rev (dose-response): 18.92 % of activated DMSO
  PolyA (dose-response): 20.96 % of activated DMSO
[1]; dose 8 nM
  MS Tat-Rev (dose-response): 1.11 % of activated DMSO
  PolyA (dose-response): 5.23 % of activated DMSO
[1]; dose 20 nM
  MS Tat-Rev (dose-response): 0.18 % of activated DMSO
  PolyA (dose-response): 4.94 % of activated DMSO
PBMCs [2]; dose 1 nM
  Viability (dose-response): 74.75
PBMCs [2]; dose 8 nM
  Viability (dose-response): 63.616
PBMCs [2]; dose 20 nM
  Viability (dose-response): 68.369
PBMCs [2]; study participant 150a
  Viability (Fig 1A): 106.07 % of activated DMSO
PBMCs [2]; study participant 152
  Viability (Fig 1A): 97.45 % of activated DMSO
PBMCs [3]; 8nM
  Cell viability (DMSO αCD3/28 = 100): 123.6 and 120.68 and 105.88 and 140.1 and 117.5 and 116.7 and 104.1

From PMC11466185, “Mechanisms and efficacy of small molecule latency-promoting agents to inhibit HIV reactivation ex vivo” (JCI Insight, 2024)
